Results from ChEMBL document CHEMBL1201862, “PubChem BioAssay data set” (2004).
The source made the active and inactive calls.

Columns and labels:
Escherichia coli = test: microbe, parasite or virus in culture
Vero [1] = test: cells; type: functional; settings: Chlorocebus sabaeus
Vero [2] = test: cells; type: functional, cell-based; settings: Chlorocebus sabaeus
SUMO-activating enzyme = SUMO-activating enzyme (Homo sapiens, UniProt Q9UBT2); test: SUMOylation inhibitor hit validation, confirmation, SUMOylation inhibitor project, biochemical, AlphaScreen (AID 2018); type: functional
SUMO-activating enzyme, sequence (Q9UBE0 whole entry): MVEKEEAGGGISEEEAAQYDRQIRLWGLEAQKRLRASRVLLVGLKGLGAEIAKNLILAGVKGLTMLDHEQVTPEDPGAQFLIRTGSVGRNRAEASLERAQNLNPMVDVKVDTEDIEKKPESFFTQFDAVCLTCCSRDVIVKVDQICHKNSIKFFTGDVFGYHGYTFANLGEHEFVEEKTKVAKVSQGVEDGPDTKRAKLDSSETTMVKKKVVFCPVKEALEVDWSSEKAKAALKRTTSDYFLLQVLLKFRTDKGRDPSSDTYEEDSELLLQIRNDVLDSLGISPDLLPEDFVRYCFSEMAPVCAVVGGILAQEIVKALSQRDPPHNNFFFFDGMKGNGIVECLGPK
SUMO-activating enzyme, sequence (Q9UBT2 whole entry): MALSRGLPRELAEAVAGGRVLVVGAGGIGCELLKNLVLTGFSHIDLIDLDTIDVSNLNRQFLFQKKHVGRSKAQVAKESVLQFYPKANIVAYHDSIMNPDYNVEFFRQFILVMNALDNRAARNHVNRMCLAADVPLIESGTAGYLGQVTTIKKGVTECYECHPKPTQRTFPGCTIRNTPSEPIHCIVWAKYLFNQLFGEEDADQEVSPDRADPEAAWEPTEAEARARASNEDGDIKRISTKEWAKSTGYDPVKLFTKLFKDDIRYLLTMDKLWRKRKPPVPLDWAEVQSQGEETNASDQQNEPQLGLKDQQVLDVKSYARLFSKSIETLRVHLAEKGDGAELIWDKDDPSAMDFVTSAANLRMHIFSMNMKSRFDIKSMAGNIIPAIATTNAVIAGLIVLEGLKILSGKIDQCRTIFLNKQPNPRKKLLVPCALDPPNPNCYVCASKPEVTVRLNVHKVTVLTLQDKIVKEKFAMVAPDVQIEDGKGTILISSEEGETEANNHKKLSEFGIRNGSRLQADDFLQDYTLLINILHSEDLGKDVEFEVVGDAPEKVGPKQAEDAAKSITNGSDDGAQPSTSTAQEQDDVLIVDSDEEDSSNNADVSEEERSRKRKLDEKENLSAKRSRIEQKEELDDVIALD

[3] = HepG2 cell cytotoxicity, dose response, cytotoxicity control for non-replicating M. tuberculosis project (AID 489018); type: functional; settings: Mycobacterium tuberculosis
[4] = Vero E6 cell cytotoxicity, dose response, cytotoxicity control for non-replicating M. tuberculosis project, secondary assay (AID 492998); type: functional, VeroE6; settings: Vero C1008
[5] = Luminescence Cell-Based Dose Retest to Confirm Inhibitors of Cancer Stem Cells. [Related pubchem assays (depositor defined):AID2717, AID2721]; type: functional; settings: Homo sapiens
[6] = target: T1, Ubiquitin-conjugating enzyme E2 N (Homo sapiens, UniProt P61088); type: functional;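 note: Dose-response confirmation in a TR-FRET assay detecting UBC13-driven polyubiquitin chain formation, inhibition measured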
T1 sequence (P61088 whole entry): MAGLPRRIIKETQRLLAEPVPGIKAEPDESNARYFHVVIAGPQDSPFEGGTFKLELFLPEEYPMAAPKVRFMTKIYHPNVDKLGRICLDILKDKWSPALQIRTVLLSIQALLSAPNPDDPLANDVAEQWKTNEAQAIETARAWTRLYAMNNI

cells = type: functional
[7] = THP-1 cell cytotoxicity, dose response, cytotoxicity control for non-replicating M. tuberculosis project (AID 489025); type: functional
H4 = test: Luminescence Cell-Based Dose Response HTS to Identify Activators of 5'UTR Stem-Loop Driven Prion Protein mRNA Translation in H4 Neuroglioblastoma Cells. [Related pubchem assays: 1829 (Project Summary), 1814 (Primary HTS)]; type: functional; settings: Homo sapiens
[8] = Luminescence Cell-Based Dose Response HTS to Identify Activators of Luciferase Translation or Activity in H4 […] Cells. [Related pubchem assays: 1829 (Project Summary), 1814 (Primary HTS)]; type: functional
[9] = target: T2, Microphthalmia-associated transcription factor (Homo sapiens, UniProt O75030); test: TRPM1 promoter luciferase signal decrease, dose response, MITF inhibitor project, cell-based, SK-MEL-5, cherry-picked, set 3 (AID 493073); type: functional
T2 sequence (O75030 whole entry): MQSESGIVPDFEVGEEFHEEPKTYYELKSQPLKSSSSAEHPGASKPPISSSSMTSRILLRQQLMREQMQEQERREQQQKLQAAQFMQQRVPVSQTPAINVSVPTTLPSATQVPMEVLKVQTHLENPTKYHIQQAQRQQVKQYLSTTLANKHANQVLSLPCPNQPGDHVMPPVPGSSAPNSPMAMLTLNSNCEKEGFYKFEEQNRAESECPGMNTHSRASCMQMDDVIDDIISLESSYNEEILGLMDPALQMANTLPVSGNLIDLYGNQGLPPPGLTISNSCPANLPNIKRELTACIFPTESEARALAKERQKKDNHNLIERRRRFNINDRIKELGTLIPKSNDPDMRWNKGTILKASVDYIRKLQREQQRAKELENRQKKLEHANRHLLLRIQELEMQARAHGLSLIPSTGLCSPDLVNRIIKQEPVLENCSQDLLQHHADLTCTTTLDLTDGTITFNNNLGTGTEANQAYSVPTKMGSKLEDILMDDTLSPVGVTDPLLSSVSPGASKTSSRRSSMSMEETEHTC

HEK293 = test: cells; settings: Homo sapiens;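 note: cells exposed to compound for 14 hours overnight before viability readout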
[10] = target: T3, Nucleotide-binding oligomerization domain-containing protein 1 (Homo sapiens, UniProt Q9Y239); test: NOD1 signaling inhibitors, SAR follow-up, revised (AID 2333); type: functional
T3 sequence (Q9Y239 whole entry): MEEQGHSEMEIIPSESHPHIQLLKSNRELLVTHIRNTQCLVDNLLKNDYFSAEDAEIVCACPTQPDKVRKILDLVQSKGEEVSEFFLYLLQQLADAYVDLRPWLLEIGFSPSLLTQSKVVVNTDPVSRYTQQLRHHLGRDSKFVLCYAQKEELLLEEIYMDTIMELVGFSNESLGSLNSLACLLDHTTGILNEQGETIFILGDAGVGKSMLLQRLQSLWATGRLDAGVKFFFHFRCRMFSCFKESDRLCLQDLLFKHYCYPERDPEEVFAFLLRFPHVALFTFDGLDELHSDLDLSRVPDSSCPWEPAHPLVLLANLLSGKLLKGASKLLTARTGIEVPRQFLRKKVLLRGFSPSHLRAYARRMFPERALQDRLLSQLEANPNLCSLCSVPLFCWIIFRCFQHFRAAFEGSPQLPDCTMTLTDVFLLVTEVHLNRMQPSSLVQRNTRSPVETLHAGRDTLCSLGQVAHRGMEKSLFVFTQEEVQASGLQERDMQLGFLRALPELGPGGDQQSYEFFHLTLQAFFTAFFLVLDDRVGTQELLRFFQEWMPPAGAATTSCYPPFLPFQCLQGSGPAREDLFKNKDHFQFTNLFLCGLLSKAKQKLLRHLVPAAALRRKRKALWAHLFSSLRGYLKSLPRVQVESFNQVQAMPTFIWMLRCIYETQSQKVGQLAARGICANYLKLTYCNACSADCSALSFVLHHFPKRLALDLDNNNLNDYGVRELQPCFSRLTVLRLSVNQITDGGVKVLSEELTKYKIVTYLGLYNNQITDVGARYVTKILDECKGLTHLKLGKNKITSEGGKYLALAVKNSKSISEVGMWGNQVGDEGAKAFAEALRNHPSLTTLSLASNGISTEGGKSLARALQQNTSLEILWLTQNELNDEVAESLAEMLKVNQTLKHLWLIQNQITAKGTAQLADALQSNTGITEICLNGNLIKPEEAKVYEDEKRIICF

Tumor necrosis factor = Tumor necrosis factor (Homo sapiens, UniProt P01375); test: TNFa-triggered NF-kB activation inhibitors, SAR follow-up, cell-based, revised (AID 2337); type: functional
Tumor necrosis factor, sequence (P01375 whole entry): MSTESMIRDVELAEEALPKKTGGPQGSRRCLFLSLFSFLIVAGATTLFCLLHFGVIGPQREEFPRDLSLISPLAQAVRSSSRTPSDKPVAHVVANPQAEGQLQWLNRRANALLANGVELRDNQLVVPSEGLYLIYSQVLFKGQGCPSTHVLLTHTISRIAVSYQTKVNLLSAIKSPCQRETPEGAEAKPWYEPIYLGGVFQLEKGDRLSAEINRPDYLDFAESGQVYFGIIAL

[11] = HEp-2 cell cytotoxicity, dose response, cytotoxicity control for RSV inhibitor project, HTS (AID 2410); type: functional; settings: human respiratory syncytial virus

Question: For CCN(Cc1ccccc1)S(=O)(=O)c1c[nH]c(C(=O)OC)c1, which AC50 (Escherichia coli) is on record?
Answer: 80.5 µM (active)

Question: What does the source list for COc1ccc(C(=O)/C=C/c2cccnc2)c(OC)c1?
Answer: CC50 (Vero [1]): 14.9 µM (active); IC50 (Vero [2]): > 25 µM (active)

Question: With COc1ccccc1OC(=O)c1ccc(C)c(S(=O)(=O)N2CCOCC2)c1 as the compound, how does the AC50 (Escherichia coli) read?
Answer: 23.7 µM (active)

Question: With COc1ccc(C(=O)Nc2ccc(-c3nnn(CC(=O)NCc4ccco4)n3)cc2)cc1 as the compound, how does the IC50 (SUMO-activating enzyme) read?
Answer: 43.1 µM (active)

Question: For OC(CNCC1CCCO1)Cn1c2ccc(Cl)cc2c2cc(Cl)ccc21 (stereo unspecified), which CC50 [3] is on record?
Answer: 7.5 µM (active)

Question: What about the CC50 [4] of the same compound?
Answer: 11.2 µM (active)

Question: And the AC50 [5]?
Answer: 3.42 µM (active)

Question: And the IC50 [6]?
Answer: > 20 µM (inactive)

Question: And the IC50 (cells)?
Answer: 8.48 µM (active)

Question: What about the CC50 [7] of the same compound?
Answer: 9.03 µM (active)

Question: With CCCCn1c(N)c(N(CCOC)C(=O)COC(=O)C(C)Oc2ccc(Cl)cc2)c(=O)[nH]c1=O (stereo unspecified) as the compound, how does the AC50 (Escherichia coli) read?
Answer: 22 µM (active)

Question: With Cc1nc(SC(C)C(=O)NCC2CCCO2)c2cc(-c3ccccc3)sc2n1 (stereo unspecified) as the compound, how does the CC50 (Vero [1]) read?
Answer: > 25 µM (active)

Question: And the IC50 (Vero [2])?
Answer: 5.04 µM (active)

Question: Which AC50 (Escherichia coli) does the source give for CCOc1ccc(NC(=O)c2ccc(NC(=O)COC(=O)Cc3ccc(OC)cc3)cc2)cc1 here?
Answer: 21.4 µM (active)

Question: Which IC50 (SUMO-activating enzyme) does the source give for O=C(Nc1ccc2nc3ccccc3nc2c1)c1ccc(Br)cc1 here?
Answer: 26.7 µM (active)

Question: For Cc1cc(C(=O)NC2CCCc3c2cnn3-c2cccc(C)c2C)no1 (stereo unspecified), which EC50 (H4) is on record?
Answer: > 120 µM (not active)

Question: What about the IC50 (Vero [2]) of the same compound?
Answer: 1.53 µM (active)

Question: And the EC50 [8]?
Answer: > 120 µM (not active)

Question: With CCC[n+]1c(C)sc2c3c(ccc21)CCCC3 as the compound, how does the AC50 [9] read?
Answer: 9.87 µM (active)

Question: Which results are given for CC(C)(C)C(=O)/N=C(\N)Nc1nc2ccccc2o1?
Answer: IC50 (HEK293): > 20 µM (inactive); IC50 [10]: > 20 µM (inactive); IC50 (Tumor necrosis factor): 16.5 µM (active)

Question: For CCN(CC)C(=O)Oc1ccc2ccccc2c1Br, which CC50 (Vero [1]) is on record?
Answer: 22.7 µM (active)

Question: What about the CC50 [11] of the same compound?
Answer: 44.8 µM (active)

Question: What about the IC50 (Vero [2]) of the same compound?
Answer: > 25 µM (active)
